The results in this text go back to patent publication US9056119B2, “VEGF production promoter” (Kao Corporation, priority 2010, dated 2015).

The assay deals with VEGF. Briefly: Effect on production of VEGF: amount of VEGF secreted in culture supernatant, determined by ELISA. The class given is cell-based. The conditions noted are these: normal human newborn preputial epidermal keratinocytes (NHEK), 16 hours, control defined as 1. The procedure: Normal human newborn preputial epidermal keratinocytes (Kurabo Industries Ltd.: frozen NHEK (F) Lot. No. 061130-902) were used in a test. The cells were inoculated into three six-well microplates at 2×10^4 cells/mL per well. Culture was carried out in Defined keratinocyte-SFM (SFM medium, Gibco) under conditions of 2% CO2 and 37° C. After the cell density reached 50 to 60% confluence, the medium was exchanged for additive-free Defined keratinocyte-SFM medium (SFM (−) medium). The cells were conditioned to the SFM (−) medium for 24 hours, and the medium was then exchanged for an SFM (−) medium supplemented with an arbitrary concentration of the triterpenoid saponin obtained in Example 1. Then, the test was started.
It should be noted that a compound-free SFM (−) medium was used as a negative control. 16 hours after the start of the test, the media were collected, and the amounts of VEGF secreted in the supernatants of the cultures were determined using an ELISA kit (R&D Systems). The amount of VEGF produced in the control was defined as 1, and relative values to the control value were used for evaluation.
For orientation: An ELISA detects its analyte on a solid surface through an enzyme-linked reagent.

In the case of `C[C@@H]1C[C@H]2O[C@]3(O[C@H]2C(C)(C)O)[C@H]1[C@@]1(C)CC[C@@]24C[C@@]25CC[C@H](O[C@@H]2OC[C@@H](O)[C@@H](O)C2O)C(C)(C)C5CC=C4[C@]1(C)[C@H]3O` (stereo partly drawn) [Compound 2, 24-epi-7,8-Didehydrocimigenol-3-xyloside], the “Relative value of secreted VEGF amount” value (20 μg/mL) amounted to 2.32 and the “Relative value of secreted VEGF amount” value (100 μg/mL) was found to be 0.40.

For the compound `C[C@H](CC(=O)C1OC1(C)C)[C@H]1C(=O)C[C@@]2(C)C3=CCC4C(C)(C)[C@@H](O[C@@H]5OC[C@@H](O)[C@@H](O)C5O)CC[C@@]45C[C@@]35C(O)C[C@]12C` (some centres unmarked) [Compound 3, Cimicifugoside H-1], the “Relative value of secreted VEGF amount” value (20 μg/mL) was 1.19, the “Relative value of secreted VEGF amount” value (100 μg/mL) came to 2.50 and the “Relative value of secreted VEGF amount” value (200 μg/mL) was determined as 2.82.

Regarding `CC(=O)O[C@H]([C@H]1C[C@@H](C)[C@H]2[C@@](O)(O1)[C@H](O)[C@@]1(C)C3=CCC4C(C)(C)[C@@H](O[C@@H]5OC[C@@H](O)[C@@H](O)C5O)CC[C@@]45C[C@@]35CC[C@]21C)C(C)(C)O` (stereo partly drawn) [Compound 1, 7,8-Didehydro-24-O-acetylhydroshengmanol-3-O-β-xyloside], the “Relative value of secreted VEGF amount” value reads like this: (20 μg/mL) 2.19; (100 μg/mL) 3.65; (200 μg/mL) 5.69.
